{"source": "PubChem BioAssay AID1259409", "about": "(Chemical Carcinogenesis Research Information System (CCRIS), 2018)", "origin": "cited, not measured here", "system": "rodent chemically induced tumor inhibition, incidence and multiplicity", "experiment": "CCRIS tumor inhibitor studies", "conditions": "Dose [Inhibitor]: 0, Route [Inhibitor]: ORAL, Species: RAT, Strain/Sex: F344/MALE"}
{"smiles": "COc1cc(/C=C/C(=O)O[C@H]2CC[C@]34C[C@]35CC[C@]3(C)[C@@H]([C@H](C)CCC=C(C)C)CC[C@@]3(C)[C@@H]5CC[C@H]4C2(C)C)ccc1O", "values": [{"measurement": "tumour outcome (control, treated, inhibition, significance)", "setting": "Carcinogen: 2,2'-DIHYDROXY-DI-N-PROPYLNITROSAMINE, 53609-64-6, N-ETHYL-N-HYDROXYETHYLNITROSAMINE, 13147-25-6, 3,2'-DIMETHYL-4-AMINO-, Carcinogen: 2,2'-DIHYDROXY-DI-N-PROPYLNITROSAMINE, 53609-64-6, N-ETHYL-N-HYDROXYETHYLNITROSAMINE, 13147-25-6, 3,2'-DIMETHYL-4-AMINO-, 1% IN DIET FOR 32 WK BEGINNING 1 WK POST CARCINOGEN TREATMENT (STUDY DURATION: 36 WK), Target Tissue: Type of Lesion: LUNG: ADENOMA, Dose [Carcinogen]: 1000 MG/KG BW DHPN TWICE 1500 MG/KG BW EHEN TWICE, 75 MG/KG BW 3 TIMES ADMINISTERED OVER FIRST 3 WK, Promoter: NONE USED", "value": "7/14 (50%), 11/13 (85%), -70%, not significant"}, {"measurement": "tumour outcome (control, treated, inhibition, significance)", "setting": "Carcinogen: 2,2'-DIHYDROXY-DI-N-PROPYLNITROSAMINE, 53609-64-6, N-ETHYL-N-HYDROXYETHYLNITROSAMINE, 13147-25-6, 3,2'-DIMETHYL-4-AMINO-, Carcinogen: 2,2'-DIHYDROXY-DI-N-PROPYLNITROSAMINE, 53609-64-6, N-ETHYL-N-HYDROXYETHYLNITROSAMINE, 13147-25-6, 3,2'-DIMETHYL-4-AMINO-, 1% IN DIET FOR 32 WK BEGINNING 1 WK POST CARCINOGEN TREATMENT (STUDY DURATION: 36 WK), Target Tissue: Type of Lesion: THYROID GLAND: ADENOMA, Dose [Carcinogen]: 1000 MG/KG BW DHPN TWICE, 1500 MG/KG BW EHEN TWICE 75 MG/KG BW 3 TIMES ADMINISTERED OVER FIRST 3 WK, Promoter: NONE USED", "value": "3/14 (21%), 2/13 (15%), 29%, not significant"}, {"measurement": "tumour outcome (control, treated, inhibition, significance)", "setting": "Carcinogen: 2,2'-DIHYDROXY-DI-N-PROPYLNITROSAMINE, 53609-64-6, N-ETHYL-N-HYDROXYETHYLNITROSAMINE, 13147-25-6, 3,2'-DIMETHYL-4-AMINO-, Carcinogen: 2,2'-DIHYDROXY-DI-N-PROPYLNITROSAMINE, 53609-64-6, N-ETHYL-N-HYDROXYETHYLNITROSAMINE, 13147-25-6, 3,2'-DIMETHYL-4-AMINO-, 1% IN DIET FOR 32 WK BEGINNING 1 WK POST CARCINOGEN TREATMENT (STUDY DURATION: 36 WK), Target Tissue: Type of Lesion: THYROID GLAND: CARCINOMA, Dose [Carcinogen]: 1000 MG/KG BW DHPN TWICE, 1500 MG/KG BW EHEN TWICE, 75 MG/KG BW 3 TIMES ADMINISTERED OVER FIRST 3 WK, Promoter: NONE USED", "value": "3/14 (21%), 1/13 (8%), 62%, not significant"}, {"measurement": "tumour outcome (control, treated, inhibition, significance)", "setting": "Carcinogen: 2,2'-DIHYDROXY-DI-N-PROPYLNITROSAMINE, 53609-64-6, N-ETHYL-N-HYDROXYETHYLNITROSAMINE, 13147-25-6, 3,2'-DIMETHYL-4-AMINO-, Carcinogen: 2,2'-DIHYDROXY-DI-N-PROPYLNITROSAMINE, 53609-64-6, N-ETHYL-N-HYDROXYETHYLNITROSAMINE, 13147-25-6, 3,2'-DIMETHYL-4-AMINO-, 1% IN DIET FOR 32 WK BEGINNING 1 WK POST CARCINOGEN TREATMENT (STUDY DURATION: 36 WK), Target Tissue: Type of Lesion: URINARY BLADDER: CARCINOMA, Dose [Carcinogen]: 1000 MG/KG BW DHPN TWICE, 1500 MG/KG BW EHEN TWICE, 75 MG/KG BW 3 TIMES ADMINISTERED OVER FIRST 3 WK, Promoter: NONE USED", "value": "1/14 (7%), 2/13 (15%), -114%, not significant"}, {"measurement": "outcome", "setting": "Carcinogen: 2,2'-DIHYDROXY-DI-N-PROPYLNITROSAMINE, 53609-64-6, N-ETHYL-N-HYDROXYETHYLNITROSAMINE, 13147-25-6, 3,2'-DIMETHYL-4-AMINO-, Carcinogen: 2,2'-DIHYDROXY-DI-N-PROPYLNITROSAMINE, 53609-64-6, N-ETHYL-N-HYDROXYETHYLNITROSAMINE, 13147-25-6, 3,2'-DIMETHYL-4-AMINO-, 1% IN DIET FOR 32 WK BEGINNING 1 WK POST CARCINOGEN TREATMENT (STUDY DURATION: 36 WK), Target Tissue: Type of Lesion: URINARY BLADDER: PAPILLOMA, Dose [Carcinogen]: 1000 MG/KG BW DHPN TWICE, 1500 MG/KG BW EHEN TWICE, 75 MG/KG BW 3 TIMES ADMINISTERED OVER FIRST 3 WK, Promoter: NONE USED", "value": "0/14 (0%), 3/13 (23%), -100%, not significant"}, {"measurement": "tumour outcome (control, treated, inhibition, significance)", "setting": "Carcinogen: 2,2'-DIHYDROXY-DI-N-PROPYLNITROSAMINE, 53609-64-6, N-ETHYL-N-HYDROXYETHYLNITROSAMINE, 13147-25-6, 3,2'-DIMETHYL-4-AMINO-, Carcinogen: 2,2'-DIHYDROXY-DI-N-PROPYLNITROSAMINE, 53609-64-6, N-ETHYL-N-HYDROXYETHYLNITROSAMINE, 13147-25-6, 3,2'-DIMETHYL-4-AMINO-, 1% IN THE DIET FOR 32 WK BEGINNING 1 WK POST CARCINOGEN TREATMENT (STUDY DURATION: 36 WK), Target Tissue: Type of Lesion: LARGE INTESTINE: ADENOMA, Dose [Carcinogen]: 1000 MG/KG BW DHPN TWICE, 1500 MG/KG BW EHEN TWICE, 75 MG/KG BW 3 TIMES ADMINISTERED OVER FIRST 3 WK, Promoter: NONE USED", "value": "7/14 (50%), 5/13 (38%), 24%, not significant"}, {"measurement": "tumour outcome (control, treated, inhibition, significance)", "setting": "Carcinogen: 2,2'-HYDROXY-DI-N-PROPYLNITROSAMINE, 53609-64-6, N-ETHYL-N-HYDROXYETHYL- NITROSAMINE, 13147-25-6, 3,2'-DIMETHYL-4-AM, Carcinogen: 2,2'-HYDROXY-DI-N-PROPYLNITROSAMINE, 53609-64-6, N-ETHYL-N-HYDROXYETHYL- NITROSAMINE, 13147-25-6, 3,2'-DIMETHYL-4-AM, 1% IN DIET BEGINNING 1 WK POST LAST CARCINOGEN DOSE AND CONTINUING FOR 32 WK (STUDY DURATION: 36 WK), Target Tissue: Type of Lesion: URINARY BLADDER: CARCINOMA, Dose [Carcinogen]: 1000 MG/KG IP DHPN 2X, 1500 MG/KG GAV EHEN 2X AND 75 MG/KG SC DMAB 3X GIVEN OVER THE INITIAL 3 WK PERIOD AT 3-4 D INTERV, Promoter: NONE USED", "value": "1/14 (7%), 2/13 (15%), -114%, not calculated"}, {"measurement": "tumour outcome (control, treated, inhibition, significance)", "setting": "Carcinogen: 3,2'-DIMETHYL-4-AMINOBIPHENYL, 13394-86-0, 2% IN BASAL DIET BEGINNING POST CARCINOGEN TREATMENT AND CONTINUING FOR 40 WK (STUDY DURATION: 60 WK), Target Tissue: Type of Lesion: PANCREAS: ACINAR CELL NODULE, Dose [Carcinogen]: 50 MG/KG 1/2 WK FOR 20 WK TO RATS MAINTAINED ON ETHINYL ESTRADIOL CONTAINING DIET (0.75 PPM) FOR 1 WK CYCLED WITH ETHINY, Promoter: ETHINYL ESTRADIOL, 57-63-6", "value": "4/10 (40%), 5/13 (38%), 5%, not significant"}, {"measurement": "tumour outcome (control, treated, inhibition, significance)", "setting": "Carcinogen: 3,2'-DIMETHYL-4-AMINOBIPHENYL, 13394-86-0, 2% IN BASAL DIET BEGINNING POST CARCINOGEN TREATMENT AND CONTINUING FOR 40 WK (STUDY DURATION: 60 WK), Target Tissue: Type of Lesion: PROSTATE: CARCINOMA, Dose [Carcinogen]: 50 MG/KG 1/2 WK FOR 20 WK TO RATS MAINTAINED ON ETHINYL ESTRADIOL CONTAINING DIET (0.75 PPM) FOR 1 WK CYCLED WITH ETHINY, Promoter: ETHINYL ESTRADIOL, 57-63-6", "value": "5/10 (50%), 5/13 (38%), 24%, not significant"}]}
